# Literature values, collected in article PMC6504684 (Frontiers in Pharmacology, 2019).
# Columns and labels:
# [1] = test system: rat α9α10 nAChR; details: cited from earlier work
# [2] = test system: models of pain and inflammation; details: in vivo; cited from earlier work
# [3] = test system: α9α10 nAChR; details: cited from earlier work
# [4] = test system: GABAβ receptors; details: cited from earlier work
substance,measurement,setting,value
Vc1.1,IC50,[1],0.019 µM
same,"analgesic and anti-inflammatory effects, in words",[2],analgesic and anti-inflammatory effects
same,"selectivity for the α9α10 nAChR, in words",[3],α9α10 selective
same,"effects via GABAβ receptors, in words",[4],can also be transmitted via inhibition of GABAβ receptors
